Assay results as given in ChEMBL document CHEMBL5653596, “A novel small molecule met inhibitor induces apoptosis in cells transformed by the oncogenic TPR-MET tyrosine kinase” (Cancer Res, 2003).
Calls of active or inactive are those of the source. No cut-off for these calls is given here.

Experiments:
[1] = molecular target: T1, Fibroblast growth factor receptor 1 (Homo sapiens, UniProt P11362); assay: Inhibition of glutathione S-transferase fused FGFR1 (unknown origin) catalytic activity infected in Sf9 cells using poly-Glu-Tyr (4:1) as substrate
[2] = molecular target: Platelet-derived growth factor receptor beta (Homo sapiens, UniProt P09619); assay: Inhibition of glutathione S-transferase fused PDGFbetaR (unknown origin) catalytic activity infected in Sf9 cells using poly-Glu-Tyr (4:1) as substrate
[3] = system: BaF3; assay: Induction of apoptosis in mouse BaF3 cells transfected with TPR-MET genes assessed as early apoptotic cells at 1 uM measured after 18 hrs by annexin V and propidium iodide staining based flow cytometry assay (reference value: 2.5%); format: functional
[4] = molecular target: Hepatocyte growth factor receptor (Mus musculus) (UniProt P16056); assay: Inhibition of Met autophosphorylation at Tyr361/365/366 in mouse BaF3 cells at 5 uM by immunoblotting analysis; format: cell-based
Sequence of Hepatocyte growth factor receptor (Mus musculus) (P16056 whole entry): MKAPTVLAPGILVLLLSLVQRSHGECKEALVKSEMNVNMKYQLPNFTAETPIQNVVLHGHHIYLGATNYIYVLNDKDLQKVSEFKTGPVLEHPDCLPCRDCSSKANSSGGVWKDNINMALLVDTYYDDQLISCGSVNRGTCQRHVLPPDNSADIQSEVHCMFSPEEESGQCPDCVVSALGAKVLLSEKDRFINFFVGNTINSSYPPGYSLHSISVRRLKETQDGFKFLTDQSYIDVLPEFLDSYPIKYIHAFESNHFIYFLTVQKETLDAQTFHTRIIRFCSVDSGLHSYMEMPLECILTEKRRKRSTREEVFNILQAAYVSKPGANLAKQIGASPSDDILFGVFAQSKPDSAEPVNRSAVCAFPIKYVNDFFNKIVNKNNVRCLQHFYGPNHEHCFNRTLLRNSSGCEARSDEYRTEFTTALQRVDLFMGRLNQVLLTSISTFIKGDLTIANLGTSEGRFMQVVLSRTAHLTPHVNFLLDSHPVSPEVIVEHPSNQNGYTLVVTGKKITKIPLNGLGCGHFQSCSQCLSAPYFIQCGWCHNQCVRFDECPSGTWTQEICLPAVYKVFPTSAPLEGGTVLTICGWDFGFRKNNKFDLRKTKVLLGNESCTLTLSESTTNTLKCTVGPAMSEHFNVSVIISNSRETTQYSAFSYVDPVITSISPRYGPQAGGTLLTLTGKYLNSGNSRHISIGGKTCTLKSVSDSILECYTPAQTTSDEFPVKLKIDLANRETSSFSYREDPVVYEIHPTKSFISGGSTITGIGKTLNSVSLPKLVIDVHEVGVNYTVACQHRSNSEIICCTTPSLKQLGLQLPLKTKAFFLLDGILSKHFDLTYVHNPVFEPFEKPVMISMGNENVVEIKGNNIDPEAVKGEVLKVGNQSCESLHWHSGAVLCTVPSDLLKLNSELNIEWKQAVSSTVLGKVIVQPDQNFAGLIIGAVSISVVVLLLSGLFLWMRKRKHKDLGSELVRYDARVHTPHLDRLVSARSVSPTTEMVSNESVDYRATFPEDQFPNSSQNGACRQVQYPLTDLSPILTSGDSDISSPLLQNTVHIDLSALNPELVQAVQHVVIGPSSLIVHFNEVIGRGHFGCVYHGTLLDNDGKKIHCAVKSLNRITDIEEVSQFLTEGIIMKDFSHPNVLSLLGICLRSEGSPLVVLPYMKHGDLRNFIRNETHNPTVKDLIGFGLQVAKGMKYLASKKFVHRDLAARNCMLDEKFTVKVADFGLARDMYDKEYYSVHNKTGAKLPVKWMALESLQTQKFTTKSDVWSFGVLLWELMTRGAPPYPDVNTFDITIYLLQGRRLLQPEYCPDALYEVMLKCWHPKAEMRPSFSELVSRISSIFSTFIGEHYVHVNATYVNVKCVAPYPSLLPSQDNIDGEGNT

[5] = system: BaF3; assay: Induction of apoptosis in mouse BaF3 cells transfected with TPR-MET genes assessed as total apoptotic cells at 1 uM measured after 18 hrs by annexin V and propidium iodide staining based flow cytometry assay (reference value: 5%); format: functional
[6] = system: BaF3; assay: Inhibition of cell growth in mouse BaF3 cells transfected with BCR-ABL genes in presence of interleukin 3 at 1 uM measured after 18 hrs by 3-(4,5-dimethylthiazol-2-yl)-2,5-diphenyltetrazolium bromide assay; format: functional, cell-based
[7] = system: BaF3; assay: Induction of apoptosis in mouse BaF3 cells transfected with TPR-MET genes assessed as necrotic cells at 1 uM measured after 18 hrs by annexin V and propidium iodide staining based flow cytometry assay (reference value: 0.1%); format: functional
[8] = system: BaF3; assay: Inhibition of cell growth in mouse BaF3 cells transfected with TEL-ABL genes at 1 uM measured after 18 hrs by 3-(4,5-dimethylthiazol-2-yl)-2,5-diphenyltetrazolium bromide assay; format: functional, cell-based
[9] = system: BaF3; assay: Inhibition of cell growth in mouse BaF3 cells transfected with TPR-MET genes at 0.01 to 10 uM by 3-(4,5-dimethylthiazol-2-yl)-2,5-diphenyltetrazolium bromide assay; format: functional, cell-based; details: dose 0.01-10 µM
[10] = system: BaF3; assay: Induction of cell cycle arrest in mouse BaF3 cells transfected with TPR-MET genes assessed as cells accumulation at S phase at 5 uM by fluorescence-activated cell sorter analysis (reference value: 45.4%); format: functional
[11] = system: BaF3; assay: Inhibition of cell growth in mouse BaF3 cells transfected with BCR-ABL genes at 1 uM measured after 18 hrs by 3-(4,5-dimethylthiazol-2-yl)-2,5-diphenyltetrazolium bromide assay; format: functional, cell-based
[12] = system: NCI-H69; assay: Growth inhibition of human NCI-H69 cells in presence of HGF measured after 72 hrs by 3-(4,5 dimethylthiazol-2-yl)-2,5-diphenyltetrazolium bromide assay; format: functional, cell-based
[13] = system: BaF3; assay: Inhibition of cell growth in mouse BaF3 cells transfected with TEL-JAK2 genes at 1 uM measured after 18 hrs by 3-(4,5-dimethylthiazol-2-yl)-2,5-diphenyltetrazolium bromide assay; format: functional, cell-based
[14] = system: BaF3; assay: Induction of cell cycle arrest in mouse BaF3 cells transfected with TPR-MET genes assessed as cells accumulation at G1 phase at 1 uM by fluorescence-activated cell sorter analysis (reference value: 42.4%); format: functional
[15] = system: BaF3; assay: Induction of cell cycle arrest in mouse BaF3 cells transfected with TPR-MET genes assessed as cells accumulation at G1 phase at 5 uM by fluorescence-activated cell sorter analysis (reference value: 42.4%); format: functional
[16] = system: BaF3; assay: Induction of cell cycle arrest in mouse BaF3 cells transfected with TPR-MET genes assessed as cells accumulation at G2/M phase at 5 uM by fluorescence-activated cell sorter analysis (reference value: 12.2%); format: functional
[17] = molecular target: Hepatocyte growth factor receptor (Mus musculus) (UniProt P16056); assay: Inhibition of Met autophosphorylation at Tyr496 in mouse BaF3 cells at 5 uM by immunoblotting analysis; format: cell-based
[18] = system: BaF3; assay: Induction of cell cycle arrest in mouse BaF3 cells transfected with TPR-MET genes assessed as cells accumulation at G2/M phase at 1 uM by fluorescence-activated cell sorter analysis (reference value: 12.2%); format: functional
[19] = system: BaF3; assay: Inhibition of migration of mouse BaF3 cells at 5 uM measured after 4 hrs by spontaneous transwell migration assay relative to control; format: functional
[20] = system: BaF3; assay: Inhibition of cell growth in mouse BaF3 cells transfected with TPR-MET genes in presence of interleukin 3 at 1 uM measured after 3 days by 3-(4,5-dimethylthiazol-2-yl)-2,5-diphenyltetrazolium bromide assay; format: functional, cell-based; details: time 3.0 day
[21] = system: BaF3; assay: Reduction in tyrosine phosphorylation of cellular proteins in mouse BaF3 cells transfected with TPR-MET genes by immunoblotting analysis; format: functional, cell-based; details: dose 0.2-5 µM
[22] = system: BaF3; assay: Inhibition of […] phosphorylation of AKT at […] in mouse BaF3 cells transfected with TPR-MET genes at 0.2 to 5 uM by immunoblotting analysis; format: cell-based; details: dose 0.2-5 µM
[23] = system: BaF3; assay: Inhibition of Serine phosphorylation of FKHR at Ser256 in mouse BaF3 cells transfected with TPR-MET genes at 0.2 to 5 uM by immunoblotting analysis; format: cell-based; details: dose 0.2-5 µM
[24] = molecular target: T1, Fibroblast growth factor receptor 1; assay: Inhibition of glutathione S-transferase fused FGFR1 (unknown origin) catalytic activity infected in Sf9 cells using poly-Glu-Tyr (4:1) as substrate at 0.02 uM relative to control
[25] = system: BaF3; assay: Induction of cell cycle arrest in mouse BaF3 cells transfected with TPR-MET genes assessed as cells accumulation at S phase at 1 uM by fluorescence-activated cell sorter analysis (reference value: 45.4%); format: functional
[26] = system: BaF3; assay: Inhibition of cell growth in mouse BaF3 cells transfected with TPR-MET genes in presence of interleukin 3 at 1 uM by 3-(4,5-dimethylthiazol-2-yl)-2,5-diphenyltetrazolium bromide assay; format: functional, cell-based
[27] = system: BaF3; assay: Induction of cell cycle arrest in mouse BaF3 cells transfected with TPR-MET genes assessed as cells accumulation at G2/M phase at 0.2 uM by fluorescence-activated cell sorter analysis (reference value: 12.2%); format: functional
[28] = system: BaF3; assay: Induction of cell cycle arrest in mouse BaF3 cells transfected with TPR-MET genes assessed as cells accumulation at S phase at 0.2 uM by fluorescence-activated cell sorter analysis (reference value: 45.4%); format: functional
[29] = system: BaF3; assay: Inhibition of cell growth in mouse BaF3 cells transfected with TEL-PDGFbetaR genes at 1 uM measured after 18 hrs by 3-(4,5-dimethylthiazol-2-yl)-2,5-diphenyltetrazolium bromide assay; format: functional, cell-based
[30] = system: BaF3; assay: Induction of apoptosis in mouse BaF3 cells transfected with TPR-MET genes assessed as late apoptotic cells at 1 uM measured after 18 hrs by annexin V and propidium iodide staining based flow cytometry assay (reference value: 3.8%); format: functional
[31] = system: BaF3; assay: Inhibition of cell growth in mouse BaF3 cells transfected with TPR-MET genes by 3-(4,5-dimethylthiazol-2-yl)-2,5-diphenyltetrazolium bromide assay; format: functional, cell-based
[32] = system: BaF3; assay: Inhibition of Serine phosphorylation of AKT at Ser473 in mouse BaF3 cells transfected with TPR-MET genes at 0.2 to 5 uM by immunoblotting analysis; format: cell-based; details: dose 0.2-5 µM
[33] = molecular target: Proto-oncogene tyrosine-protein kinase Src (Homo sapiens, UniProt P12931); assay: Inhibition of glutathione S-transferase fused c-Src (unknown origin) catalytic activity infected in Sf9 cells using poly-Glu-Tyr (4:1) as substrate
Sequence of Proto-oncogene tyrosine-protein kinase Src (P12931 2-536 limits assumed): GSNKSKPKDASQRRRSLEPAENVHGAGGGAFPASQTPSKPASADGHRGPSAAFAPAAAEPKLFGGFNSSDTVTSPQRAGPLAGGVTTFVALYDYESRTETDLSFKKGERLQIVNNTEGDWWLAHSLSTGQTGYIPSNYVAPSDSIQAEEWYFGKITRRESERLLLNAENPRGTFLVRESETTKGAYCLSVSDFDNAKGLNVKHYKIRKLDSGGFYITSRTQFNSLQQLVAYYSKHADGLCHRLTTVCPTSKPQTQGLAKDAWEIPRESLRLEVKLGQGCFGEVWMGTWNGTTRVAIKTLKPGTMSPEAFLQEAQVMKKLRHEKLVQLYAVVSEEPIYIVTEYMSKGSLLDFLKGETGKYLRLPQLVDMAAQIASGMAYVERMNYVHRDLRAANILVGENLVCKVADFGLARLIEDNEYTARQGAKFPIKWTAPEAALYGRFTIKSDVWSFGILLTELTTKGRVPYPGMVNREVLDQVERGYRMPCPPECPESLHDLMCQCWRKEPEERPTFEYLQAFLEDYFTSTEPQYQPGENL

[34] = molecular target: Hepatocyte growth factor receptor (Mus musculus) (UniProt P16056); assay: Inhibition of Met autophosphorylation at Tyr480 in mouse BaF3 cells at 5 uM by immunoblotting analysis; format: cell-based
[35] = system: BaF3; assay: Inhibition of cell growth in mouse BaF3 cells transfected with BCR-ABL genes in presence of interleukin 3 at 1 uM measured after 3 days by 3-(4,5-dimethylthiazol-2-yl)-2,5-diphenyltetrazolium bromide assay; format: functional, cell-based; details: time 3.0 day
[36] = system: BaF3; assay: Inhibition of cell growth in mouse BaF3 cells in presence of interleukin 3 at 1 uM measured after 3 days by 3-(4,5-dimethylthiazol-2-yl)-2,5-diphenyltetrazolium bromide assay; format: functional, cell-based; details: time 3.0 day
[37] = molecular target: T2, Hepatocyte growth factor receptor (Homo sapiens, UniProt P08581); assay: Inhibition of glutathione S-transferase fused Met (unknown origin) catalytic activity infected in Sf9 cells using poly-Glu-Tyr (4:1) as substrate
T2 sequence (P08581 whole entry, the tested form may be a part): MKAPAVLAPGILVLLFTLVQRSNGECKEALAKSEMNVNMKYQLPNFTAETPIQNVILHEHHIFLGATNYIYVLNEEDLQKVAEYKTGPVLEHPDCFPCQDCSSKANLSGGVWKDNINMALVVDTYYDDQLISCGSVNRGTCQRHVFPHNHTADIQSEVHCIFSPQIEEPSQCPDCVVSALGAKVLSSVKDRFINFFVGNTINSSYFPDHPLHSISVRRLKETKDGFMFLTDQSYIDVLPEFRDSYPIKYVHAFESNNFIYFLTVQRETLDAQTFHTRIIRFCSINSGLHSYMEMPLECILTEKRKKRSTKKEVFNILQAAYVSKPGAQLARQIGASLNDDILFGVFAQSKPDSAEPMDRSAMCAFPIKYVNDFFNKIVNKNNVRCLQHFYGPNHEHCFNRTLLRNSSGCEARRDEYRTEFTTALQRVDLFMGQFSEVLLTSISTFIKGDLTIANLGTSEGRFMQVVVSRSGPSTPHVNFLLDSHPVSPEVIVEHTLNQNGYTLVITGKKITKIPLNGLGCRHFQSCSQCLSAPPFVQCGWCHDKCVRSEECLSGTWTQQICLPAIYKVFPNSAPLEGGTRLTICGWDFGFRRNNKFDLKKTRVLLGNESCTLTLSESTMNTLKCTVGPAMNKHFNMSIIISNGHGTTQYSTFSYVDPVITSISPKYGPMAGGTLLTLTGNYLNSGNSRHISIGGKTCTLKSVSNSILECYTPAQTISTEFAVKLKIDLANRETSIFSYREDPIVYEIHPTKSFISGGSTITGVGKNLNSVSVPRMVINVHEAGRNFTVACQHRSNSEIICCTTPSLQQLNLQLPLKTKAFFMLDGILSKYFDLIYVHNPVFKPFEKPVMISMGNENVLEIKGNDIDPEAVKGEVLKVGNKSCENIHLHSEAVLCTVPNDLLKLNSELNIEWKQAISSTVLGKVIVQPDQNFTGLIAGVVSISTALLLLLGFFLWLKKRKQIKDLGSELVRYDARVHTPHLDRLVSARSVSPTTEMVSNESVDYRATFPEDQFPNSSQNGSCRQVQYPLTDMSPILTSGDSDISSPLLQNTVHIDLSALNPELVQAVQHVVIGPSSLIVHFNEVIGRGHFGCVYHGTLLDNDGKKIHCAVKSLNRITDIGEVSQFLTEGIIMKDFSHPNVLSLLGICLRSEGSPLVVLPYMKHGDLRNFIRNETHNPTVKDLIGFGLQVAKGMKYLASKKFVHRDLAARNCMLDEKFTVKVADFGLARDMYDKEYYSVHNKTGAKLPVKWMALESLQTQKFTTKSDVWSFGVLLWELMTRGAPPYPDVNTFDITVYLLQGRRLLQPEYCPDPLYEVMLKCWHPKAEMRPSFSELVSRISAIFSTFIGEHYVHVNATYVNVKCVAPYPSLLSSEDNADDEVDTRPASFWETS

[38] = molecular target: Angiopoietin-1 receptor (Homo sapiens, UniProt Q02763); assay: Inhibition of glutathione S-transferase fused Tie2 (unknown origin) catalytic activity infected in Sf9 cells using poly-Glu-Tyr (4:1) as substrate
Sequence of Angiopoietin-1 receptor (Q02763 whole entry, the tested form may be a part): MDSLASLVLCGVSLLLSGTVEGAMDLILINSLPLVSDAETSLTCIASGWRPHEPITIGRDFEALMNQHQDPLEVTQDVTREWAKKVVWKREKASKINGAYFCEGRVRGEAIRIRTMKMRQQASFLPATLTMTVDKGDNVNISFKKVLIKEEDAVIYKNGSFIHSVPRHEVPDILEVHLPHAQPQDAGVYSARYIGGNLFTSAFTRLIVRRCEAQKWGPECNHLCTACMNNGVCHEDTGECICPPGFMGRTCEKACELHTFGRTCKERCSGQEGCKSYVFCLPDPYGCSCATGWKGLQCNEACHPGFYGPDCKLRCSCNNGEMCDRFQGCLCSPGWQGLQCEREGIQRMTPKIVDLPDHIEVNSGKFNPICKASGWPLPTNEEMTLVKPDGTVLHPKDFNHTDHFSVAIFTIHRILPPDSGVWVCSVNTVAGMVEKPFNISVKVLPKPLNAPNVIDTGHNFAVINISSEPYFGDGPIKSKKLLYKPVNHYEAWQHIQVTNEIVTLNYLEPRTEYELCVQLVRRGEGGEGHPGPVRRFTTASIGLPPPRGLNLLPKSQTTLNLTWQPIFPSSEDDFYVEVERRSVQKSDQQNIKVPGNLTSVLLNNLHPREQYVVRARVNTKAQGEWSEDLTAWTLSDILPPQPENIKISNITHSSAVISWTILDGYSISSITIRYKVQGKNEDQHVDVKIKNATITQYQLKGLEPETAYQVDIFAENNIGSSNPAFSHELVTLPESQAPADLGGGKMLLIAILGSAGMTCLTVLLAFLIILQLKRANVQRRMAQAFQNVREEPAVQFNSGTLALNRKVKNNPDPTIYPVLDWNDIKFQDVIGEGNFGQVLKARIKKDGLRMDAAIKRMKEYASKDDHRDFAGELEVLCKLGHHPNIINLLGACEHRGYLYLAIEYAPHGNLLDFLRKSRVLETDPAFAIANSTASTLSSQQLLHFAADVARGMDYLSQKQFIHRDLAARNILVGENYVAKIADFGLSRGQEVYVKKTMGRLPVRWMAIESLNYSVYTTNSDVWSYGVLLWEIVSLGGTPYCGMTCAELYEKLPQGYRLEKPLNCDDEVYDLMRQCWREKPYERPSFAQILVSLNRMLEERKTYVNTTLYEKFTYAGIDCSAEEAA

[39] = molecular target: Cyclin-dependent kinase 2 (Homo sapiens, UniProt P24941); assay: Inhibition of glutathione S-transferase fused CDK2 (unknown origin) catalytic activity infected in Sf9 cells using poly-Glu-Tyr (4:1) as substrate
[40] = system: BaF3; assay: Inhibition of cell growth in mouse BaF3 cells transfected with TPR-MET genes at 1 uM measured after 3 days by 3-(4,5-dimethylthiazol-2-yl)-2,5-diphenyltetrazolium bromide assay; format: functional; details: BaF3, 72 h, time 3 day
[41] = molecular target: Epidermal growth factor receptor (Homo sapiens, UniProt P00533); assay: Inhibition of glutathione S-transferase fused EGFR (unknown origin) catalytic activity infected in Sf9 cells using poly-Glu-Tyr (4:1) as substrate
[42] = molecular target: T2, Hepatocyte growth factor receptor; assay: Inhibition of HGF-dependent Met (unknown origin) phosphorylation
[43] = system: BaF3; assay: Inhibition of migration of mouse BaF3 cells measured after 4 hrs by spontaneous transwell migration assay; format: functional, cell-based; details: dose 0.2-5 µM
[44] = system: BaF3; assay: Induction of apoptosis in mouse BaF3 cells transfected with TPR-MET genes assessed as viable cells at 1 uM measured after 18 hrs by annexin V and propidium iodide staining based flow cytometry assay (reference value: 93.6%); format: functional; details: read-out: Activity
[45] = system: BaF3; assay: Induction of cell cycle arrest in mouse BaF3 cells transfected with TPR-MET genes assessed as cells accumulation at G1 phase at 0.2 uM by fluorescence-activated cell sorter analysis (reference value: 42.4%); format: functional
[46] = system: NCI-H345; assay: Growth inhibition of human NCI-H345 cells in presence of HGF measured after 72 hrs by 3-(4,5 dimethylthiazol-2-yl)-2,5-diphenyltetrazolium bromide assay; format: functional, cell-based
[47] = molecular target: Vascular endothelial growth factor receptor 2 (Homo sapiens, UniProt P35968); assay: Inhibition of glutathione S-transferase fused Flk1 (unknown origin) catalytic activity infected in Sf9 cells using poly-Glu-Tyr (4:1) as substrate
[48] = system: BaF3; assay: Inhibition of Serine phosphorylation of GSK3beta at Ser21/9 in mouse BaF3 cells transfected with TPR-MET genes at 0.2 to 5 uM by immunoblotting analysis; format: cell-based; details: dose 0.2-5 µM
[49] = system: BaF3; assay: Inhibition of migration of mouse BaF3 cells at 1 uM measured after 4 hrs by spontaneous transwell migration assay relative to control; format: functional

IC50 [1]: 9.7 µM | IC50 [2]: > 20 µM | inhibition [4]: Active | inhibition [17]: Active | inhibition [24]: 2% | IC50 [31]: < 3 µM | IC50 [33]: > 10 µM | inhibition [34]: Active | IC50 [37]: 0.02 µM | IC50 [38]: > 100 µM | IC50 [39]: > 10 µM | IC50 [41]: > 100 µM | IC50 [42]: 1 µM | IC50 [47]: 1.3 µM
SMILES: Cc1[nH]c(/C=C2/C(=O)Nc3ccc(S(=O)(=O)N(C)c4cccc(Cl)c4)cc32)c(C)c1C(=O)N1CCN(C)CC1
Activity [3]: 11.3% | Activity [5]: 24% | inhibition [6]: inactive | Activity [7]: 1.1% | inhibition [8]: inactive | inhibition [9]: Dose-Dependent Effect | Activity [10]: 21.1% | inhibition [11]: inactive | inhibition [12]: Dose-Dependent Effect | inhibition [13]: inactive | Activity [14]: 40% | Activity [15]: 13.4% | Activity [16]: 8.3% | Activity [18]: 6% | inhibition at 5 µM [19]: 80% | inhibition [20]: inactive | inhibition [21]: Dose-Dependent Effect | inhibition [22]: Active | inhibition [23]: Active | Activity [25]: 29.8% | inhibition [26]: Active | Activity [27]: 13.4% | Activity [28]: 40% | inhibition [29]: inactive | Activity [30]: 17.2% | inhibition [32]: Active | inhibition [35]: inactive | inhibition [36]: inactive | inhibition at 1 µM [40]: 100% | inhibition [43]: Dose-Dependent Effect | viability at 1 µM [44]: 70.3% | Activity [45]: 46.6% | inhibition [46]: Dose-Dependent Effect | inhibition [48]: Active | inhibition at 1 µM [49]: 44.8%
